This note sets out measurements from US12016864B2, “LOX enzyme inhibiting methods and compositions” (ANOVIA BIOSCIENCES, INC., priority 2021, dated 2024).

The experiment has as its target T1, Bovine lysyl oxidase (LOX) (Bos taurus, UniProt P33072).
T1 construct: from tissue; host or cells: adult bovine tendon
T1 sequence (P33072 170-418): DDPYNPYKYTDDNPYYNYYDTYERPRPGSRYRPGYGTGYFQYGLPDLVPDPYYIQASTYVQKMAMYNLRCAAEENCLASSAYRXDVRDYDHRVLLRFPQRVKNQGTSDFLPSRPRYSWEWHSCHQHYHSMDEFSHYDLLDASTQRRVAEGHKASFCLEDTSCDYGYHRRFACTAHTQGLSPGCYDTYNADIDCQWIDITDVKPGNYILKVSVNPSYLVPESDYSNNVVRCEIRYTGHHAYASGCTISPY
The experiment can be described thus: LOX inhibition assay, fluorometric (cadaverine / HRP / Amplex Red). It is filed as biochemical. Conditions: LOX extracted from bovine tendon; 30 min preincubation at 37° C.; 5 mM cadaverine; read-out: Activity Range LOX. As to the method: The ability of compounds to inhibit prototypic LOX was determined using a fluorometric assay. This assay measures the activity of lysyl oxidases by coupling the reaction with horseradish peroxidase-catalyzed […]. The activity assay protocol uses cadaverine as substrate that releases hydrogen peroxide upon transformation by prototypic LOX enzyme present in the sample. Hydrogen peroxide was in turn detected using a red fluorescence substrate for HRP-coupled reactions (Amplex Red Enzyme Assays, Thermo Scientific Fisher). This lead to an increase in fluorescence that can be easily detected at Ex/Em=540/590 nm in a fluorescence microplate
Bovine lysyl oxidase (LOX) was extracted by adapting the methodology from [Kagan et al. 1979 and Borel et al. 2001.] from bovine tendon: Frozen adult bovine tendon was placed in room temperature water to defrost, and then membranes were removed and the remaining tissue cut into 1 cm pieces. The material was first passed through a course mesh meat grinder, and this mince was passed through a fine mesh grinder. The mince was homogenized in 10 v/w of buffer (16 mM sodium phosphate buffer pH 7.8, 400 mM NaCl) using a Waring blender. The homogenate was centrifuged at 15,000×g for 15 min at 4° C. After centrifugation, the supernatant was discarded and the pellets resuspended in 10 volumes of the same buffer. The mixture was blended again and centrifuged with the same settings. This time the pellets were blended in 3 volumes of extraction buffer (16 mM sodium phosphate buffer pH 7.8) and left to incubate at 4° C. for 2 h. After this time, the slurry was centrifuged with the same settings as described above. The supernatant was used in an ultrafiltration step to remove large proteins by size exclusion through a 30 kDalton filter (EMD Millipore). The filtrate was mixed with DEAE Sephadex (GE Healthcare), or passed over a MonoQ FPLC column. After two washes, one in 16 mM sodium phosphate buffer pH 7.8, 380 mM NaCl, and another in 16 mM sodium phosphate buffer pH 7.8, the proteins were eluted with 16 mM sodium phosphate pH 7.8, 10 μM CuSO4, and 4 M urea. Fractions containing Lox activity were collected and stored frozen at −70° C.
Final concentration in the LOX assay is shown in Table 6 below and performed in a total volume of […].
7 μl of freshly prepared reaction buffer were delivered to reaction wells. Compounds were resuspended in 100% DMSO at 10 mM and delivered into buffer using acoustic technology (Echo550; nanoliter range). A 2.85× solution of LOX protein in reaction buffer was prepared (“LOX solution”) and 7 μl of LOX solution was added into the reaction wells. Buffer only was added to column 1 for no protein control. Reactions were incubated for 30 minutes at 37° C. A 3.33× mixture of cadaverine, Amplex Red, and HRP (“Substrate/Detection Mix) was prepared and subsequently 6 μL of the mixture was added to each reaction well. Progress of reactions was monitored for 120 minutes at 37° C. using Clariostar plate reader (ex530-12, ems 600-40). For all activity assays, pan-LOX inhibitor CCT365623 (Tang et al, 2017) and LOXL2/LOXL3 inhibitor PAT-1251 (PharmaKea) were included as standards.
The slope of the linear portion of the progress curve was calculated using Clariostar software. Typical analysis interval was between 20-50 min, but varied between experiments. The background subtracted signals (No protein wells were considered as background) were converted to % activity relative to DMSO controls. Data was analyzed using GraphPad Prism 4 with “sigmoidal dose-response (variable slope)”; 4 parameters with Hill Slope. Constraints: Bottom=Constant equal to 0. Top=Must be less than 120.

Each structure is given as a SMILES string.

For `NCc1ccnc(S(=O)(=O)C[C@H]2C[C@@H](c3ccccc3)CN2S(=O)(=O)N2CCS(=O)(=O)CC2)c1` [Example 196B, 4-(((2R,4S)-2-(((4-(aminomethyl)pyridin-2-yl)sulfonyl)methyl)-4-phenylpyrrolidin-1-yl)sulfonyl)thiomorpholine 1,1-dioxide 2,2,2-trifluoroacetate], the IC50 lay in the range of 500 to 1000 nM.
Consider `NCc1ccnc(S(=O)(=O)C[C@@H]2C[C@H](c3ccccc3)CN2S(=O)(=O)N2CCS(=O)(=O)CC2)c1` [Example 196A, 4-(((2S,4R)-2-(((4-(aminomethyl)pyridin-2-yl)sulfonyl)methyl)-4-phenylpyrrolidin-1-yl)sulfonyl)thiomorpholine 1,1-dioxide 2,2,2-trifluoroacetate], for which the IC50 was in the range of 500 to 1000 nM.
As for `NCc1ccnc(S(=O)(=O)C[C@@H]2C[C@H](c3ccccc3)CN2S(=O)(=O)N2CCS(=O)(=O)CC2)c1` (racemic) [Example 196, cis-4-((2-(((4-(Aminomethyl)pyridin-2-yl)sulfonyl)methyl)-4-phenylpyrrolidin-1-yl)sulfonyl)thiomorpholine 1,1-dioxide 2,2,2-trifluoroacetate], the figure is 1000 to 30000 nM; as for `NCc1ccnc(S(=O)(=O)C[C@H]2C[C@@H](c3ccccc3)CN2S(=O)(=O)N2CCOCC2)c1` (single isomer, unassigned) [Example 195A], 1000 to 30000 nM.
As for `NCc1ccnc(S(=O)(=O)C[C@@H]2C[C@H](c3ccccc3)CN2S(=O)(=O)N2CCOCC2)c1` (racemic) [Example 195, Cis-(2-(((1-(Morpholinosulfonyl)-4-phenylpyrrolidin-2-yl)methyl)sulfonyl)pyridin-4-yl)methanamine 2,2,2-trifluoroacetate], the figure is 1000 to 30000 nM; as for `NCc1ccnc(S(=O)(=O)C[C@@H]2C[C@H](c3ccccc3)CN2S(=O)(=O)N2CCOCC2)c1` (single isomer, unassigned) [Example 195B], 1000 to 30000 nM.
